{"source": "patent EP0334853B1", "about": "“SOFT STEROIDS HAVING ANTI-INFLAMMATORY ACTIVITY” (BODOR, Nicholas S., priority 1987, dated 1989)"}
{"system": "skin of the flexor surface of the forearm", "experiment": "Topical vasoconstriction test (blanching, method of McKenzie and Stoughton)", "format": "in vivo", "conditions": "0.03M solution in acetone/isopropylmyristate 90:10, 0.05 milliliter on 1 cm patch, occluded; patch removed after about six hours, blanching score one hour later; average of duplicate, except entries marked ** (duplicate experiment not conducted)", "description": "(§1) TOPICAL VASOCONSTRICTION TEST\n(§2) A topical vasoconstriction test was conducted using the general method of McKenzie, A.W. and R.B. Stoughton, Arch. Dermatol, 86, (1962), 608-10. The topical vasoconstriction test was done in order to evaluate the anti-inflammatory potency of the novel compounds of the present invention. A 0.03M solution of the test compound in acetone/isopropylmyristate 90:10 volume/volume was prepared. An aliquot of 0.05 milliliter was applied to a circular patch, one centimeter in diameter, which was in turn applied against the skin of the flexor surface of the forearm (previously cleansed with ethanol 95% and dried). This application was occluded with a water-impervious film. The patch was removed after about six hours and the blanching score was evaluated one hour later. Two control compounds were used at the same time and under the same conditions. The control compounds were hydrocortisone 17-valerate and cortienic acid 17-ethylcarbonate chloromethylester. The experiment was made in duplicate and the average estimation values for the blanching activity are reported in Table I. The left column of Table I indicates the 17α-substituent of the structure: [drawing 44]"}
{"compound": "CCO[C@]1(C(=O)OCCl)CC[C@H]2[C@@H]3CCC4=CC(=O)CC[C@]4(C)[C@H]3[C@@H](O)C[C@@]21C", "note": "[-OCH₂H₅, chloromethyl 11β-hydroxy-17α-ethoxyandrost-4-en-3-one-17β-carboxylate]", "BLANCHING STUDIES Value (average estimation values for the blanching activity)": 0.75}
{"compound": "CCCO[C@]1(C(=O)OCCl)CC[C@H]2[C@@H]3CCC4=CC(=O)CC[C@]4(C)[C@H]3[C@@H](O)C[C@@]21C", "note": "[-OC₃H₇, Chloromethyl 11β-hydroxy-17α-propoxyandrost-4-en-3-one-17β-carboxylate]", "BLANCHING STUDIES Value (average estimation values for the blanching activity)": "1 **"}
{"compound": "CCCCO[C@]1(C(=O)OCCl)CC[C@H]2[C@@H]3CCC4=CC(=O)CC[C@]4(C)[C@H]3[C@@H](O)C[C@@]21C", "note": "[-OC₄H₉, Chloromethyl 17α-butoxy-11β-hydroxyandrost-4-en-3-one-17β-carboxylate]", "BLANCHING STUDIES Value (average estimation values for the blanching activity)": 0.5}
{"compound": "CCOC(=O)O[C@]1(C(=O)OCCl)CC[C@H]2[C@@H]3CCC4=CC(=O)CC[C@]4(C)[C@H]3[C@@H](O)C[C@@]21C", "note": "[carbonate, cortienic acid 17-ethylcarbonate chloromethylester, reference compound]", "BLANCHING STUDIES Value (average estimation values for the blanching activity)": 1.75}
{"compound": "hydrocortisone 17-valerate [reference compound]", "BLANCHING STUDIES Value (average estimation values for the blanching activity)": 1.5}
{"system": "skin of the flexor surface of the forearm", "experiment": "Topical vasoconstriction test (blanching, method of McKenzie and Stoughton)", "format": "in vivo", "conditions": "previous study, no details given", "description": "as §1, §2"}
{"compound": "CO[C@]1(C(=O)OCCl)CC[C@H]2[C@@H]3CCC4=CC(=O)CC[C@]4(C)[C@H]3[C@@H](O)C[C@@]21C", "note": "[-OCH₃, chloromethyl 11β-hydroxy-17α-methoxyandrost-4-en-3-one-17β-carboxylate]", "activity (blanching), determined in a previous study": "* The 17-methoxy homologue was determined in a previous study to have low activity."}
